Experimental findings from ChEMBL document CHEMBL4368891, “Conformationally restricted quinazolone derivatives as PI3Kδ-selective inhibitors: the design, synthesis and biological evaluation” (Medchemcomm, 2019) are described below.

Calls of active or inactive are those of the source. The rule behind the calls is not given here.

In data set [1] the target is T1, Phosphatidylinositol 4,5-bisphosphate 3-kinase catalytic subunit delta isoform (Homo sapiens, UniProt O00329).
T1 sequence (O00329 whole entry): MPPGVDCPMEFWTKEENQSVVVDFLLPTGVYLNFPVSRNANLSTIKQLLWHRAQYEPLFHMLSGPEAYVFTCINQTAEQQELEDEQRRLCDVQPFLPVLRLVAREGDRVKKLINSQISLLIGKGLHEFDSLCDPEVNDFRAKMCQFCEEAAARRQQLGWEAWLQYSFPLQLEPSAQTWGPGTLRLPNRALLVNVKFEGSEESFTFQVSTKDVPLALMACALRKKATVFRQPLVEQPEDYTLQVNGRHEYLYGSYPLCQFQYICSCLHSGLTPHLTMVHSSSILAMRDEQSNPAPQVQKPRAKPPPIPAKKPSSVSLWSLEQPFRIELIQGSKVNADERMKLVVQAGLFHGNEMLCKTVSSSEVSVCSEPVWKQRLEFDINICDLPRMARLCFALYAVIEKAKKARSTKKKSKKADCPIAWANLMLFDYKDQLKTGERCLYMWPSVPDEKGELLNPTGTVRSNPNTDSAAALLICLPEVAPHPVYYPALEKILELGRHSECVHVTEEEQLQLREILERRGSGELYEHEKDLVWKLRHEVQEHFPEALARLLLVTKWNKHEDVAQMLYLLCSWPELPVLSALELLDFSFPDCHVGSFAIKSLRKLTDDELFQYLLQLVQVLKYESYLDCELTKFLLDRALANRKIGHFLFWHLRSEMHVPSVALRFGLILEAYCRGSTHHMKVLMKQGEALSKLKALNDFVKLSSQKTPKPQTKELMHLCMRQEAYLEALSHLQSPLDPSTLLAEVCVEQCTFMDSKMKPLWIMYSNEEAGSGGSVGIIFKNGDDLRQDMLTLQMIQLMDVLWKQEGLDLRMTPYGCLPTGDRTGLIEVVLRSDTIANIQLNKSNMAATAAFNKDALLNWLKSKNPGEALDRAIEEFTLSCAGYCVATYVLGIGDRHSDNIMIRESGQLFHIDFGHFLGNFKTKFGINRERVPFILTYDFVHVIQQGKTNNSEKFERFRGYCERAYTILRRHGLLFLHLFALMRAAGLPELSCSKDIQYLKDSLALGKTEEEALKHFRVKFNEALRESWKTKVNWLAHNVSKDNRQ
The data set is described as follows: Inhibition of PI3Kdelta (unknown origin) using PIP2 as substrate after 2 hrs by ADP-Glo assay. For orientation: ADP-Glo turns the ADP formed in a reaction into a luminescent signal.

The test system of the next data set is SU-DHL-6. The data set is described as follows: Antiproliferative activity against human SU-DHL6 cells after 72 hrs by CellTiter-Glo luminescent cell viability assay. The format is functional. The following applies: SU-DHL-6, 72 h. (Cellular ATP, detected with luciferase, serves as a proxy for viable cell number.)
In data set [2] the target is Phosphatidylinositol 4,5-bisphosphate 3-kinase catalytic subunit alpha isoform (Homo sapiens, UniProt P42336). The data set is described as follows: Inhibition of PI3Kalpha (unknown origin) using PIP2 as substrate after 2 hrs by ADP-Glo assay.
The target of data set [3] is Phosphatidylinositol 4,5-bisphosphate 3-kinase catalytic subunit beta isoform (Homo sapiens, UniProt P42338). The data set is described as follows: Inhibition of PI3Kbeta (unknown origin) using PIP2 as substrate after 2 hrs by ADP-Glo assay.
Data set [4] concerns the target Phosphatidylinositol 4,5-bisphosphate 3-kinase catalytic subunit gamma isoform (Homo sapiens, UniProt P48736). As to the kind of experiment: Inhibition of PI3Kgamma (unknown origin) using PIP2 as substrate after 2 hrs by ADP-Glo assay.
The conditions of data set [5]: human, microsomes.
Description: Intrinsic clearance in liver by measuring in intrinsic clearance in human liver microsomes in presence of NADPH by LC-MS/MS analysis
For data set [6] the following is noted: rat, microsomes.
Description: Intrinsic clearance in liver by measuring in intrinsic clearance in rat liver microsomes in presence of NADPH by LC-MS/MS analysis
The nature of data set [7]: in vitro. Conditions: human, liver microsomes.
Description: Half life in human liver microsomes in presence of NADPH by LC-MS/MS analysis
Data set [8] is described as follows: in vitro. The following applies: human, liver microsomes. This is another data set of the same source.
Description: Intrinsic clearance in human liver microsomes assessed per mg protein in presence of NADPH by LC-MS/MS analysis
A short description of data set [9]: in vitro. The following applies: human, liver microsomes. This is another data set of the same source. On the technique in general: Liver microsomes are vesicles of endoplasmic reticulum, rich in cytochrome P450 enzymes.
Description: Metabolic stability in human liver microsomes assessed as compound remaining after 60 mins in presence of NADPH by LC-MS/MS analysis
Data set [10] in a line: in vitro. The following applies: rat, liver microsomes.
Description: Half life in rat liver microsomes in presence of NADPH by LC-MS/MS analysis
The nature of data set [11]: in vitro. The following applies: rat, liver microsomes. This is another data set of the same source.
Description: Intrinsic clearance in rat liver microsomes assessed per mg protein in presence of NADPH by LC-MS/MS analysis
The nature of data set [12]: in vitro. The following applies: rat, liver microsomes. This is another data set of the same source.
Description: Metabolic stability in rat liver microsomes assessed as compound remaining after 60 mins in presence of NADPH by LC-MS/MS analysis
Data set [13] in a line: Half life in Sprague-Dawley rat at 10 mg/kg, po administered via gavage by LC-MS/MS analysis. The format is ADME, organism-based. The following applies: in vivo.
Data set [14] addresses T2, Phosphatidylinositol 4,5-bisphosphate 3-kinase catalytic subunit delta isoform (Homo sapiens) (UniProt O00329).
T2 sequence (whole entry): T1 sequence (O00329 whole entry)
The data set is described as follows: Inhibition of PI3Kdelta in human SU-DHL6 cells assessed as reduction in Akt phosphorylation at S473 residue after 2 hrs by Western blot analysis. The format is cell-based.

Data set [15] addresses T2, Phosphatidylinositol 4,5-bisphosphate 3-kinase catalytic subunit delta isoform (Homo sapiens). As to the kind of experiment: Inhibition of PI3Kdelta in human SU-DHL6 cells assessed as reduction in S6K1 phosphorylation at T389 residue after 2 hrs by Western blot analysis. The format is cell-based.
Data set [16] shares this target. The data set is described as follows: Inhibition of PI3Kdelta in human SU-DHL6 cells assessed as reduction in Akt phosphorylation at S473 residue at 100 nM after 2 hrs by Western blot analysis. The format is cell-based.
Data set [17] has the same target. As to the kind of experiment: Inhibition of PI3Kdelta in human SU-DHL6 cells assessed as reduction in S6K1 phosphorylation at T389 residue a at 100 nM after 2 hrs by Western blot analysis. The format is cell-based.
The nature of data set [18]: AUC (0 to last) in Sprague-Dawley rat at 10 mg/kg, po administered via gavage by LC-MS/MS analysis. Conditions: in vivo. The arrangement: dose 10 mg/kg, time 0 - last, route oral. The format is ADME, organism-based.

Chain of Phosphatidylinositol 4,5-bisphosphate 3-kinase catalytic subunit beta isoform (P42338 whole entry, canonical isoform): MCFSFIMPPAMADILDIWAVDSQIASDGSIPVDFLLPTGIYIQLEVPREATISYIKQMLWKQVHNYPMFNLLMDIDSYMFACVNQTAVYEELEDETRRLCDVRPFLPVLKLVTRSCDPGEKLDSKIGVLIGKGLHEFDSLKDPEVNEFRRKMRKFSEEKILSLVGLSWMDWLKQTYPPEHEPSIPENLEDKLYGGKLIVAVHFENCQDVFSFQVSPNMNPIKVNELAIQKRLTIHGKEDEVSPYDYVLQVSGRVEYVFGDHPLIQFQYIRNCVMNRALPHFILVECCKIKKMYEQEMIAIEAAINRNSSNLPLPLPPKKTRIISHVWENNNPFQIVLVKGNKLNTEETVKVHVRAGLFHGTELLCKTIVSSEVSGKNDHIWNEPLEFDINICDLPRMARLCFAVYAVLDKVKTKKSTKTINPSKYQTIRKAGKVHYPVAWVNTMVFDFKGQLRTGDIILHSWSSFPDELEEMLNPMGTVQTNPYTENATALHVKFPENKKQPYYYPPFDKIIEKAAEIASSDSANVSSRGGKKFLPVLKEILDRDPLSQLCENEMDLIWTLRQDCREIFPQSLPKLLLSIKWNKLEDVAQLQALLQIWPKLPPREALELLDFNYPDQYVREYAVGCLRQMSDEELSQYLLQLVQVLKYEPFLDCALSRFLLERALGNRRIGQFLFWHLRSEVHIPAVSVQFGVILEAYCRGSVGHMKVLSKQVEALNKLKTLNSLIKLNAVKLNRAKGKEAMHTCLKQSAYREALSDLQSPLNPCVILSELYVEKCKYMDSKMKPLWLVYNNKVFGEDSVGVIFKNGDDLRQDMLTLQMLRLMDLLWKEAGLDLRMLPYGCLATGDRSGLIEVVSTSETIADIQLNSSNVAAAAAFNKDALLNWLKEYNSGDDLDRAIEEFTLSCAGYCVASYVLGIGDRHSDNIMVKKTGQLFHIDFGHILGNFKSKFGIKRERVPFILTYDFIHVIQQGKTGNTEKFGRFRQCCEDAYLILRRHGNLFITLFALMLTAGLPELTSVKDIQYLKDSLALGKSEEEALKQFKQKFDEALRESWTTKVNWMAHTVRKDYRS
Chain of Phosphatidylinositol 4,5-bisphosphate 3-kinase catalytic subunit alpha isoform (P42336 whole entry, canonical isoform): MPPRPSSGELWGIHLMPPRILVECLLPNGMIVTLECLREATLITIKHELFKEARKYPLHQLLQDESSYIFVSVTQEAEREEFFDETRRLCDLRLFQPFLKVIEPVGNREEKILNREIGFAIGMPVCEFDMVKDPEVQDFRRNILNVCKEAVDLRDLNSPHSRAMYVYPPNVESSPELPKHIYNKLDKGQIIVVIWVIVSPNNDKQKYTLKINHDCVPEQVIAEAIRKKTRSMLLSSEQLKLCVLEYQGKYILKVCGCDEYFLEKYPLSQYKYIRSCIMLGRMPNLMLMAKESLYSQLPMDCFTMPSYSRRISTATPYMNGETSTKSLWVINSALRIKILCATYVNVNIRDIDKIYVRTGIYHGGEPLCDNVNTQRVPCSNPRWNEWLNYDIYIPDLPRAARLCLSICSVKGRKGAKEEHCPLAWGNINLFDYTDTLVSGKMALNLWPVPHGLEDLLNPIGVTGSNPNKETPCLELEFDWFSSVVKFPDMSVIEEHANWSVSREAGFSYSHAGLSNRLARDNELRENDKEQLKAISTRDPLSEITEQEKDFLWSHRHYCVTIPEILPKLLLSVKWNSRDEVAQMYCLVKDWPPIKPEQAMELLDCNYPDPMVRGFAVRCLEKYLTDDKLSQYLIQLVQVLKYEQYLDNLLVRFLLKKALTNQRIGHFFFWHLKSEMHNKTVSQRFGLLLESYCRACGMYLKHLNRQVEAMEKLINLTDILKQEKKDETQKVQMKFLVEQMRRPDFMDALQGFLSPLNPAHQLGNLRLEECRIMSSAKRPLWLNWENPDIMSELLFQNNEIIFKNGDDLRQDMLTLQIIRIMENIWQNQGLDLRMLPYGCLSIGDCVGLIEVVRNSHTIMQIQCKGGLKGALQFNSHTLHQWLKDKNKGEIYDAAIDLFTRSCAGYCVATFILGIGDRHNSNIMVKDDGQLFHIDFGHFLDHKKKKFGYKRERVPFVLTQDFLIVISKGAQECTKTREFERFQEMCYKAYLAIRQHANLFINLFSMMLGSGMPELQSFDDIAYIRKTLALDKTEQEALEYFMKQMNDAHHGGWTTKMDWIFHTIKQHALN
Chain of Phosphatidylinositol 4,5-bisphosphate 3-kinase catalytic subunit gamma isoform (P48736 whole entry, canonical isoform): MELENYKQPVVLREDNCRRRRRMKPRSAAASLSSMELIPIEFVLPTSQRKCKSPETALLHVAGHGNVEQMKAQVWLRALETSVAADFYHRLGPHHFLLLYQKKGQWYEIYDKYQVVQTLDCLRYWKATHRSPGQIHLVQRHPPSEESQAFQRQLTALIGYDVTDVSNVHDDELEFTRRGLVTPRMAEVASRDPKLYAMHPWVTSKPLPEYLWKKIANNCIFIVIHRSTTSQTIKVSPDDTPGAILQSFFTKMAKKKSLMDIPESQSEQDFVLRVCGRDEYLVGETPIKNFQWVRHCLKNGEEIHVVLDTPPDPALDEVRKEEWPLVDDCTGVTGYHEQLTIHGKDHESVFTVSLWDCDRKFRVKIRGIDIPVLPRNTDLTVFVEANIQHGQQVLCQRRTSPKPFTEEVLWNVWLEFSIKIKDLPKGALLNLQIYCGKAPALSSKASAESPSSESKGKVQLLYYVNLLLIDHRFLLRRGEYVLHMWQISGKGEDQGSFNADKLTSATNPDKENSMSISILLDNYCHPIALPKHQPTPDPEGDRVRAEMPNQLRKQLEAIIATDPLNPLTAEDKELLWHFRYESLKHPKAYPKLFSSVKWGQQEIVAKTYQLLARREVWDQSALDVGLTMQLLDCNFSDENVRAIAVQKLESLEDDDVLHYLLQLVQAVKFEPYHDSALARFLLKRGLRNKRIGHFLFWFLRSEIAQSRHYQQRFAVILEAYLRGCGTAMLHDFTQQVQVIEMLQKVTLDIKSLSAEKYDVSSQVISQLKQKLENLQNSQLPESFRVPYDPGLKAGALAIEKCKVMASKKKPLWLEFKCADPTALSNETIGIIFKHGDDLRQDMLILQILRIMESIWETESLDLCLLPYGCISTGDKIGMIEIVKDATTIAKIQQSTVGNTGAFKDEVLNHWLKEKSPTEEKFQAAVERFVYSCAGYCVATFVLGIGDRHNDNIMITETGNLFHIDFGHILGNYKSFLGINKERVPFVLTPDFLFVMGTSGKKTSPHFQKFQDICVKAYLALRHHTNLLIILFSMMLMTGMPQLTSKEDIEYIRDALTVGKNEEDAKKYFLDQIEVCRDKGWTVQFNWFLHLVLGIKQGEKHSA

The IC50 is the concentration at which inhibition is half-maximal. Read a high IC50 as lower potency. Usually GI50 stands for the concentration that inhibits growth by half. In the case of `O=c1c2c(F)cccc2nc([C@@H]2CCCN2c2nc(F)nc3[nH]cnc23)n1C1CCCC1`, in [1], the concentration for half-maximal inhibition (IC50) was found to be 178 nM. Besides, the GI50 in the data set with SU-DHL-6 turned out to be 1890 nM.

In [1], `O=c1c2c(F)cccc2nc([C@@H]2CCCN2c2ncnc3[nH]cnc23)n1Cc1ccccc1` returned a half-inhibitory concentration (IC50) of 58 nM. Besides, halving of growth in the data set on SU-DHL-6 (GI50) required 480 nM.

Consider `O=c1c2c(F)cccc2nc([C@@H]2CCCN2c2ncnc3[nH]cnc23)n1C1CCCCC1`, for which the half-maximal inhibitory concentration (IC50) in data set [1] worked out at 33 nM. In the data set with SU-DHL-6, this molecule had a GI50 of 510 nM.

Broadly, the half-life is the time in which the quantity being followed falls by half. Usually microsomal CLint stands for a measure of how fast metabolising enzymes remove a compound, apart from limits set by blood flow. A low value points to greater metabolic stability. Broadly, the fraction remaining is what is left of the initial amount, in per cent. A low value points to a greater loss. Turning to `N#Cc1c(N)ncnc1N1CCC[C@H]1c1nc2cccc(F)c2c(=O)n1Cc1ccccc1`, the IC50 came out at 22 nM in data set [1], 4940 nM in data set [2], 6240 nM in data set [3] and 587 nM in data set [4]. The molecule also came in with a GI50 in the data set on SU-DHL-6 of 330 nM. Besides, the CLH in data set [5] is 0.0401 mL/min/kg; in [6], 1.5571 mL/min/kg. Further, the half-life was 31.1 min in the data set “in vitro [7]” and 1.6 min in “in vitro [10]”. Moreover, the results for the microsomal CLint in the data set “in vitro [8]” and in the data set “in vitro [11]” were 44.6 µL/min/mg and 865 µL/min/mg, respectively. Besides, the amount remaining at 1 h is 25.5% in the data set “in vitro [9]” and 0.1% in “in vitro [12]”.

On to `O=c1c2c(F)cccc2nc([C@@H]2CCCN2c2nc(F)nc3[nH]cnc23)n1Cc1ccccc1`, for which, in data set [1], the IC50 worked out at 91 nM. The molecule also had a GI50 in the data set on SU-DHL-6 of 380 nM.

As to `C[C@]12CC[C@H]3[C@@H](CCC4=CC(=O)CC[C@@]43C)[C@@H]1CC[C@@H]2O` [TESTOSTERONE], the CLH was found to be 0.0911 mL/min/kg in data set [5] and 3.7756 mL/min/kg in data set [6].

`CCCCn1c([C@@H]2CCCN2c2ncnc3[nH]cnc23)nc2cccc(F)c2c1=O` yielded a 50% inhibitory concentration (IC50) in data set [1] of 42 nM. Moreover, the GI50 with SU-DHL-6 worked out at 640 nM.

On to `O=c1c2c(F)cccc2nc([C@@H]2CCCN2c2ncnc3[nH]cnc23)n1C1CCCC1`, for which the IC50 in data set [1] stood at 38 nM. In the data set with SU-DHL-6, this molecule displayed a GI50 of 2650 nM.

The molecule `CC[C@H](Nc1ncnc2[nH]cnc12)c1nc2cccc(F)c2c(=O)n1-c1ccccc1` [IDELALISIB] showed a GI50 in the data set on SU-DHL-6 of 20 nM.

The molecule `O=c1c2c(F)cccc2nc([C@@H]2CCCN2c2ncnc3[nH]cnc23)n1C1CCC1` registered a concentration for half-maximal inhibition (IC50) in data set [1] of 635 nM. For the same molecule, the 50% growth inhibitory concentration (GI50) in the data set with SU-DHL-6 is 630 nM.

Broadly, the AUC(0-t) is the area under the concentration-time curve up to a stated or last time point. A lower AUC(0-t) goes with low exposure. Consider `N#Cc1c(N)ncnc1N1CCC[C@H]1c1nc2cccc(F)c2c(=O)n1C1CCCC1`, for which the half-life in data set [13] is 246 min; in “in vitro [7]”, 17.5 min; in “in vitro [10]”, 15.1 min. Besides, the half-maximal inhibitory concentration (IC50) was found to be 6.3 nM in data set [1], 8590 nM in data set [2], 1550 nM in data set [3] and 354 nM in [4]. The same molecule had a GI50 in the data set with SU-DHL-6 of 210 nM. The inhibition entry in data set [14] and in [15] was “Dose-dependent effect” each time. The inhibition entry in data set [16] and in data set [17] was “Active” throughout. The exposure AUC(0-t) in [18] was 50.8 ng·h/mL. Besides, the CLH was 0.0713 mL/min/kg in data set [5] and 0.1651 mL/min/kg in data set [6]. For the same molecule, the intrinsic metabolic clearance (microsomal CLint) in the data set “in vitro [8]” came out at 79.2 µL/min/mg; in the data set “in vitro [11]”, 91.7 µL/min/mg. In addition, the fraction remaining at 1 h in “in vitro [9]” is 9.1%; in “in vitro [12]”, 6.2%.

The molecule `O=C(O)Cc1ccccc1Nc1c(Cl)cccc1Cl` [DICLOFENAC] showed a CLH in data set [6] of 0.143 mL/min/kg.

On to `O=c1c2ccccc2nc([C@@H]2CCCN2c2ncnc3[nH]cnc23)n1Cc1ccccc1`, for which the half-inhibitory concentration (IC50) in data set [1] was 498 nM. Besides, it took 580 nM to inhibit growth with SU-DHL-6 by half (GI50).
